From the supplement of paper PMC6045584 come the findings set out here.

Compound in one assay: Cc1nc(Nc2ncc(C(=O)Nc3c(C)cccc3Cl)s2)cc(N2CCN(CCO)CC2)n1 [DASATINIB]
As to the kind of experiment: surviving fraction relative to DMSO-only wells; higher = less growth inhibition. Particulars: exposure time: 5 days. Put shortly:
(§1)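 Inhibitors at 0.5, 1, 5, 10, 50, 100, 500 and 1000 nM were applied continuously for five days to tumour cell lines seeded in log phase at 250–500 cells per well in 384-well plates 24 hours earlier. Viability was measured by CellTiter-Glo luminescence and expressed as surviving fraction relative to the median of DMSO-only wells. Luminescence was taken after 10 minutes at room temperature.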

Compound in another assay: O=C(c1cc(Cc2n[nH]c(=O)c3ccccc23)ccc1F)N1CCN(C(=O)C2CC2)CC1 [OLAPARIB]
The description is as above. The settings on record: exposure time: 5 days. The method in brief: as §1

± gives the standard deviation of the averaged measurements.

For SKBR3 BREAST, the surviving fraction with DASATINIB (0.5 nM) came to 0.718 ± 0.024; in the assay with DASATINIB (1 nM), 0.802 ± 0.1; in the assay with DASATINIB (5 nM) it was 0.722 ± 0.097; with DASATINIB (10 nM) it was 0.822 ± 0.063; in the assay with DASATINIB (50 nM) it was 1.01 ± 0.093; with DASATINIB (100 nM), 1.1 ± 0.086. Also, the surviving fraction with DASATINIB (500 nM) was found to be 1.13 ± 0.12; with DASATINIB (1000 nM), 0.942 ± 0.022; in the assay with OLAPARIB (0.5 nM) it was 1.02 ± 0.1; with OLAPARIB (1 nM) it was 1.05 ± 0.15; in the assay with OLAPARIB (5 nM), 0.939 ± 0.12; with OLAPARIB (10 nM), 1 ± 0.21. Moreover, the surviving fraction came out at 0.922 ± 0.14 in the assay with OLAPARIB (50 nM), 0.935 ± 0.093 with OLAPARIB (100 nM), 0.79 ± 0.13 with OLAPARIB (500 nM) and 0.813 ± 0.072 with OLAPARIB (1000 nM).
For SJSA1 BONE, the surviving fraction with DASATINIB (0.5 nM) was determined as 1.23 ± 0.065; in the assay with DASATINIB (1 nM) it was 1.14 ± 0.044; with DASATINIB (5 nM), 1.16 ± 0.19; in the assay with DASATINIB (10 nM) it was 1.24 ± 0.1; with DASATINIB (50 nM), 0.0427 ± 0.0032; with DASATINIB (100 nM) it was 1.6 ± 0.093. For the same test system, the surviving fraction is 1.7 ± 0.029 with DASATINIB (500 nM); 0.174 ± 0.019 with DASATINIB (1000 nM); 1 ± 0.025 in the assay with OLAPARIB (0.5 nM); 1.01 ± 0.045 with OLAPARIB (1 nM); 1.03 ± 0.061 in the assay with OLAPARIB (5 nM); 1.02 ± 0.066 with OLAPARIB (10 nM). Also, the surviving fraction in the assay with OLAPARIB (50 nM) amounted to 1.01 ± 0.083; with OLAPARIB (100 nM) it was 0.963 ± 0.024; with OLAPARIB (500 nM), 0.931 ± 0.051; in the assay with OLAPARIB (1000 nM), 0.876 ± 0.039.
Consider LNCAP PROSTATE, for which the surviving fraction is 1.14 ± 0.05 with DASATINIB (0.5 nM); 1.1 ± 0.082 with DASATINIB (1 nM); 1.03 ± 0.075 with DASATINIB (5 nM); 0.941 ± 0.12 with DASATINIB (10 nM); 0.678 ± 0.032 with DASATINIB (50 nM); 0.504 ± 0.053 with DASATINIB (100 nM). Besides, the surviving fraction in the assay with DASATINIB (500 nM) was 0.572 ± 0.012; with DASATINIB (1000 nM), 0.589 ± 0.076; in the assay with OLAPARIB (0.5 nM), 1.09 ± 0.1; with OLAPARIB (1 nM), 1.03 ± 0.16; with OLAPARIB (5 nM), 1 ± 0.096; in the assay with OLAPARIB (10 nM) it was 1.032 ± 0.0049. For the same test system, the surviving fraction with OLAPARIB (50 nM) amounted to 1.12 ± 0.086; with OLAPARIB (100 nM), 1.02 ± 0.29; with OLAPARIB (500 nM), 0.97 ± 0.061; in the assay with OLAPARIB (1000 nM) it was 0.82 ± 0.13.
As to DU4475 BREAST, the surviving fraction with DASATINIB (0.5 nM) was 0.824 ± 0.17; with DASATINIB (1 nM), 0.828 ± 0.09; in the assay with DASATINIB (5 nM), 0.802 ± 0.1; in the assay with DASATINIB (10 nM) it was 0.689 ± 0.21; with DASATINIB (50 nM), 0.658 ± 0.031; with DASATINIB (100 nM) it was 0.748 ± 0.15. Moreover, the surviving fraction in the assay with DASATINIB (500 nM) came to 0.669 ± 0.2; in the assay with DASATINIB (1000 nM) it was 0.514 ± 0.083; in the assay with OLAPARIB (0.5 nM), 1.16 ± 0.21; with OLAPARIB (1 nM), 1.36 ± 0.5; with OLAPARIB (5 nM), 1.228 ± 0.009; with OLAPARIB (10 nM), 1.22 ± 0.31. In addition, the surviving fraction with OLAPARIB (50 nM) is 0.954 ± 0.28; in the assay with OLAPARIB (100 nM), 0.739 ± 0.23; with OLAPARIB (500 nM), 0.689 ± 0.21; in the assay with OLAPARIB (1000 nM), 0.517 ± 0.15.
With SAOS2 BONE, the surviving fraction is 0.842 ± 0.055 with DASATINIB (0.5 nM); 0.788 ± 0.024 in the assay with DASATINIB (1 nM); 0.62 ± 0.017 with DASATINIB (5 nM); 0.511 ± 0.043 with DASATINIB (10 nM); 0.475 ± 0.047 in the assay with DASATINIB (50 nM); 0.384 ± 0.023 with DASATINIB (100 nM). For the same test system, the surviving fraction stood at 0.274 ± 0.032 in the assay with DASATINIB (500 nM); 0.256 ± 0.015 in the assay with DASATINIB (1000 nM); 1.078 ± 0.0052 with OLAPARIB (0.5 nM); 1.02 ± 0.022 with OLAPARIB (1 nM); 1.16 ± 0.072 with OLAPARIB (5 nM); 1.07 ± 0.042 with OLAPARIB (10 nM). Also, the surviving fraction was 0.882 ± 0.021 with OLAPARIB (50 nM), 0.8217 ± 0.0046 in the assay with OLAPARIB (100 nM), 0.753 ± 0.013 with OLAPARIB (500 nM) and 0.692 ± 0.027 with OLAPARIB (1000 nM).
For the test system H23 LUNG, the surviving fraction in the assay with DASATINIB (0.5 nM) came to 0.924 ± 0.025; with DASATINIB (1 nM) it was 0.902 ± 0.065; in the assay with DASATINIB (5 nM), 0.823 ± 0.064; in the assay with DASATINIB (10 nM), 0.783 ± 0.052; with DASATINIB (50 nM), 0.597 ± 0.051; with DASATINIB (100 nM), 0.511 ± 0.067. In addition, the surviving fraction was found to be 0.288 ± 0.0063 with DASATINIB (500 nM); 0.256 ± 0.013 with DASATINIB (1000 nM); 1.09 ± 0.03 in the assay with OLAPARIB (0.5 nM); 1.07 ± 0.02 in the assay with OLAPARIB (1 nM); 1.1 ± 0.022 in the assay with OLAPARIB (5 nM); 1.064 ± 0.004 in the assay with OLAPARIB (10 nM). Besides, the surviving fraction worked out at 1.22 ± 0.03 with OLAPARIB (50 nM), 1.13 ± 0.041 in the assay with OLAPARIB (100 nM), 1.14 ± 0.0042 in the assay with OLAPARIB (500 nM) and 1.08 ± 0.02 with OLAPARIB (1000 nM).
As to SUM149 BREAST, the surviving fraction amounted to 0.774 ± 0.058 with DASATINIB (0.5 nM); 0.817 ± 0.082 with DASATINIB (1 nM); 0.607 ± 0.043 in the assay with DASATINIB (5 nM); 0.563 ± 0.036 in the assay with DASATINIB (10 nM); 0.292 ± 0.018 with DASATINIB (50 nM); 0.252 ± 0.011 with DASATINIB (100 nM). Also, the surviving fraction is 0.177 ± 0.02 with DASATINIB (500 nM); 0.174 ± 0.018 in the assay with DASATINIB (1000 nM); 0.951 ± 0.21 in the assay with OLAPARIB (0.5 nM); 0.911 ± 0.082 with OLAPARIB (1 nM); 0.927 ± 0.11 with OLAPARIB (5 nM); 0.84 ± 0.01 in the assay with OLAPARIB (10 nM). Besides, the surviving fraction with OLAPARIB (50 nM) was 0.722 ± 0.054; with OLAPARIB (100 nM), 0.624 ± 0.059; with OLAPARIB (500 nM), 0.511 ± 0.084; in the assay with OLAPARIB (1000 nM) it was 0.336 ± 0.051.
As to SUM44 BREAST, the surviving fraction with DASATINIB (0.5 nM) was 0.88 ± 0.035; with DASATINIB (1 nM), 0.824 ± 0.085; with DASATINIB (5 nM) it was 0.941 ± 0.062; with DASATINIB (10 nM) it was 0.865 ± 0.13; with DASATINIB (50 nM), 1.14 ± 0.23; with DASATINIB (100 nM), 1.12 ± 0.15. Also, the surviving fraction in the assay with DASATINIB (500 nM) is 1.09 ± 0.13; in the assay with DASATINIB (1000 nM) it was 0.99 ± 0.055; with OLAPARIB (0.5 nM), 0.903 ± 0.012; in the assay with OLAPARIB (1 nM), 0.911 ± 0.059; in the assay with OLAPARIB (5 nM), 0.924 ± 0.083; in the assay with OLAPARIB (10 nM), 0.909 ± 0.071. The surviving fraction is 0.97 ± 0.068 in the assay with OLAPARIB (50 nM), 0.958 ± 0.063 in the assay with OLAPARIB (100 nM), 0.894 ± 0.066 with OLAPARIB (500 nM) and 0.861 ± 0.022 in the assay with OLAPARIB (1000 nM).
Turning to CAL72 BONE, the surviving fraction worked out at 1.01 ± 0.048 with DASATINIB (0.5 nM); 1.01 ± 0.041 with DASATINIB (1 nM); 0.862 ± 0.16 with DASATINIB (5 nM); 0.618 ± 0.25 in the assay with DASATINIB (10 nM); 0.269 ± 0.12 with DASATINIB (50 nM); 0.233 ± 0.12 with DASATINIB (100 nM). Also, the surviving fraction in the assay with DASATINIB (500 nM) was 0.226 ± 0.12; with DASATINIB (1000 nM), 0.221 ± 0.12; in the assay with OLAPARIB (0.5 nM), 1.05 ± 0.017; in the assay with OLAPARIB (1 nM) it was 1.098 ± 0.0086; in the assay with OLAPARIB (5 nM), 1.0433 ± 0.00058; with OLAPARIB (10 nM), 1.06 ± 0.033. For the same test system, the surviving fraction in the assay with OLAPARIB (50 nM) came to 0.98 ± 0.029; with OLAPARIB (100 nM) it was 0.958 ± 0.027; with OLAPARIB (500 nM), 0.949 ± 0.021; in the assay with OLAPARIB (1000 nM), 0.901 ± 0.029.
